Columns and labels:
[1] = Pharmacokinetic test in rats; format: in vivo, SD rats; conditions: i.g. 5 mg/kg; for AUC(0-t): male, SD, rat, po, rats plasma
Description: 5. Pharmacokinetic Test in Rats
Experimental objective: in this experiment, a single dose of each test compound was administered to SD rats intravenously and intragastrically, and the concentrations of the test compounds in plasma of rats were measured to evaluate the pharmacokinetic characteristics of the test compounds in rats.
Experimental animal: male SD rats, 200-220 g, 6-8 weeks old, 6 rats/compound, purchased from Chengdu Ddossy Experimental Animals Co., Ltd.
Experimental method: on the day of the experiment, the SD rats were randomly grouped according to their body weights. The animals were fasted but with water available for 12 to 14 h one day before the administration, and were fed 4 h after the administration.
Sampling: Before and after the administration, 0.1 mL of blood was taken from the orbits under isoflurane anesthesia and placed in an EDTAK2 centrifuge tube. Centrifugation was carried out at 5000 rpm at 4° C. for 10 min, and the plasma was collected.
The plasma collection time points for IV&PO groups were 0, 5 min, 15 min, 30 min, 1 h, 2 h, 4 h, 7h, and 24 h.
Before analysis and detection, all samples were stored at −60° C. The samples were analyzed quantitatively by LC-MS/MS. PGP-3212J

[2] = target: T1, Bcl6 (Homo sapiens (Human), UniProt P41182); test: Bcl-6 protein degradation experiment in Farage cells; format: cell-based; conditions: 24 hours
Description: 2. Bcl-6 Protein Degradation Experiment in Farage Cells
(§1) Farage cells purchased from ATCC were placed in an RPMI-1640 complete medium (containing 10% fetal bovine serum, 100 U/mL penicillin and 100 μg/mL streptomycin) and cultured at 37° C. and 5% CO2. The cells in the logarithmic growth phase were collected, and the cell suspension was adjusted to an appropriate density with the culture medium and added to a 6-well cell culture plate at a volume of 1 mL/well. The compounds to be tested were prepared to 2-fold the final concentration, 1 mL of the compounds at different concentrations were added to administration wells, a medium containing 0.2% DMSO was added to control wells, and the plate was incubated at 37° C. for 24 hours. The cells were collected into a 1.5 mL centrifuge tube, 25 μL of RIPA lysis buffer (containing 1× protease inhibitor cocktail) was added, and the cells were lysed on ice for 15 minutes and centrifuged at 12000 rpm/min at 4° C. for 10 minutes. The supernatant was collected and the protein content was determined using the BCA method. The protein sample to be tested was diluted to 0.8 mg/mL, Bcl6 was detected using a fully automated protein expression quantitative analyzer (ProteinSimple), and the internal reference protein was R-actin (both antibodies were from CST). The software (Compass for SW) of the fully automated protein expression quantitative analyzer was used to process the raw data and calculate the peak area and the Bcl6 expression rate relative to the control group. DC50 values were calculated using a four-parameter non-linear fitting model in Graphpad 8.3.0 software.

[3] = Pharmacokinetic test in mice; format: in vivo, ICR mice; conditions: i.g. 5 mg/kg
Description: 3. Pharmacokinetic Test in Mice
1.1 Experimental animal: male ICR mice, 25-30 g, 6 mice/compound, purchased from Chengdu Ddossy Experimental Animals Co., Ltd.
1.2 Experimental design: on the day of the experiment, the ICR mice were randomly grouped according to their body weights. The animals were fasted but with water available for 12 to 14 h one day before the administration, and were fed 4 h after the administration.

[4] = target: hERG potassium ion channel (Homo sapiens (Human), UniProt Q12809); test: Test for hERG potassium ion channel (manual patch-clamp, CHO cells); format: cell-based; conditions: CHO cells stably expressing hERG, whole cell patch-clamp; read-out: IC50 of inhibitory effects on hERG potassium channel current
Sequence of hERG potassium ion channel (Q12809 whole entry): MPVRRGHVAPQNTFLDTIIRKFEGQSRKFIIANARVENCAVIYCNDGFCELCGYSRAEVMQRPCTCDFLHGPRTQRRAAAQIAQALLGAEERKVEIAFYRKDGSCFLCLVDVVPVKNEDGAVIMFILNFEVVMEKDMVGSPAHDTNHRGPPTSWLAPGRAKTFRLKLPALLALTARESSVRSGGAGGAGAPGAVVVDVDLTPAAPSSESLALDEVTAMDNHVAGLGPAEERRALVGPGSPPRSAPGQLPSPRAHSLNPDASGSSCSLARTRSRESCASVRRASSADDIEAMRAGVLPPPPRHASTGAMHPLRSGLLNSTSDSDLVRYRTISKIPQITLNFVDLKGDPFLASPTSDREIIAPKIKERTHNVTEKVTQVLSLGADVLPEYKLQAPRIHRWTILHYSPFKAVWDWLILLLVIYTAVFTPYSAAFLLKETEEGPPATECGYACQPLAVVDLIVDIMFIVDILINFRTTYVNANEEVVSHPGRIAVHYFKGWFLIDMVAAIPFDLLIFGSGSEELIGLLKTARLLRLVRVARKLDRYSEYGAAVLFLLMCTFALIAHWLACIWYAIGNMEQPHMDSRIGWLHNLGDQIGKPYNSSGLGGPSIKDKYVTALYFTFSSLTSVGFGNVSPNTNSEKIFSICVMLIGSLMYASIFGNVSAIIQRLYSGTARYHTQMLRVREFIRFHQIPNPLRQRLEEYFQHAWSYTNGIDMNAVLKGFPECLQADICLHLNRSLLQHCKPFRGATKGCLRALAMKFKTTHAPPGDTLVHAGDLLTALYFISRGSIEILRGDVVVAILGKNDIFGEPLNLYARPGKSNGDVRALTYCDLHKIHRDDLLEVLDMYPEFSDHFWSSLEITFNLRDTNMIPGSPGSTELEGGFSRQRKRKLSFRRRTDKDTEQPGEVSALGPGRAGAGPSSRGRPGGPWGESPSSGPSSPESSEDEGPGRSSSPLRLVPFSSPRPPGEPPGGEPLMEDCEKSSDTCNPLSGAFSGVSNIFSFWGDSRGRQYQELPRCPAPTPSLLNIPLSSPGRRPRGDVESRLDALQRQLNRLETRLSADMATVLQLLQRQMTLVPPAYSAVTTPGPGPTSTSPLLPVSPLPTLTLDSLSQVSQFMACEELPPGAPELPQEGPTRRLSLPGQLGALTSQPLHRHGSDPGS
Text: 8. Test for hERG Potassium Ion Channel
Experimental platform: electrophysiological manual patch-clamp system
Cell line: Chinese hamster ovary (CHO) cell lines stably expressing hERG potassium ion channel
Experimental method: in CHO (Chinese Hamster Ovary) cells stably expressing hERG potassium channel, the whole cell patch-clamp technique was used to record hERG potassium channel current at room temperature. The glass microelectrode was made of a glass electrode blank (BF150-86-10, Sutter) by a puller. The tip resistance after filling the liquid in the electrode was about 2-5 MΩ. The glass microelectrode can be connected to the patch-clamp amplifier by inserting the glass microelectrode into an amplifier probe. The clamping voltage and data recording were controlled and recorded by the pClamp 10 software through a computer. The sampling frequency was 10 kHz, and the filtering frequency was 2 kHz. After the whole cell records were obtained, the cells were clamped at −80 mV, and the step voltage that induced the hERG potassium current (IhERG) was depolarized from −80 mV to +20 mV for 2 s, then repolarized to −50 mV, and returned to −80 mV after 1 s. This voltage stimulation was given every 10 s, and the administration process was started after the hERG potassium current was confirmed to be stable (at least 1 minute). The compound was administered for at least 1 minute at each test concentration, and at least 2 cells (n≥2) were tested at each concentration.
Data processing: data analysis processing was carried out by using pClamp 10, GraphPad Prism 5 and Excel software. The inhibition degree of hERG potassium current (peak value of hERG tail current induced at −50 mV) at different compound concentrations was calculated by the following formula: […]
where Inhibition % represents the percentage of inhibition of hERG potassium current by the compound, and I and Io represent the amplitude of hERG potassium current after and before the administration, respectively.
Compound IC50 was calculated using GraphPad Prism 5 software by fitting according to the following equation: […]
Among the equation, X represents the Log value of the tested concentration of the test sample, Y represents the inhibition percentage at the corresponding concentration, and Bottom and Top represent the minimum and maximum inhibition percentage, respectively.

[5] = target: T1, Bcl6; test: Bcl-6 protein degradation experiment in OCI-LY1 cells; format: cell-based; conditions: 24 hours
Description: 4. Bcl-6 Protein Degradation Experiment in OCI-LY1 Cells
as §1, with “OCI-LY1” for “Farage”, “DSMZ” for “ATCC”, “IMDM” for “RPMI-1640”, “penicillin,” for “penicillin and”, “streptomycin and 50 µM mercaptoethanol)” for “streptomycin)”, “[…]” for “μL”

| AUC(0-t) [1] | F ([1]; rats) | DC50 [2] | AUC(0-t) ([3]; male, ICR, mouse, po, mice plasma) | F ([3]; mice) | DC50 [5] | DC50 ([5]; listed as compound 8) | SMILES | IC50 [4] |
| --- | --- | --- | --- | --- | --- | --- | --- | --- |
| > 1000 ng·h/mL | >50% | < 10 nM | > 1000 ng·h/mL | >50% | < 100 nM | < 5 nM | CNC(=O)COc1cc2cc(Nc3nc(N4CCN(CC5CCN(c6ccc(C7CCC(=O)NC7=O)cc6)CC5)CC4)ncc3Cl)ccc2n(C)c1=O (centres unmarked) [Compound 8] | > 40000 nM |
| > 1000 ng·h/mL | – | < 10 nM | – | – | – | – | [2H]C([2H])([2H])NC(=O)COc1cc2cc(Nc3nc(N4CCC(O[C@H]5C[C@H](N6CCN7c8cc(F)c(C9CCC(=O)NC9=O)cc8CC[C@H]7C6)C5)CC4)ncc3Cl)ccc2n(C([2H])([2H])[2H])c1=O (some centres unmarked) [Trifluoroacetate of compound 71] | > 40000 nM |
